≈ marks a conversion by molar mass, not a printed value.
Assay: Solubility of drug in the dissolution fluid and excipient-fluid solutions (UV absorption)
Assay type: physicochemical
Settings: 37° C.
Procedure: For determining the solubility of drug in the dissolution fluid, 1 mg ibuprofen particles were put in a UV cuvette. The cuvette was then filled with 2.5 ml of the dissolution fluid (0.1 M HCl in deionized water at 37° C.). The concentration of dissolved drug was monitored by UV absorption using a Perkin Elmer Lambda 1050 Spectrophotometer. Between measurements, the cuvette was flipped at a frequency of 0.5 Hz to stir the solution. The temperature of the solution in the cuvette was maintained at 37° C., during the experiment. When the drug concentration in the solution reached its equilibrium value the drug solubility was recorded.
The solubility of drug in excipient-dissolution fluid solutions was determined by immersing 1.5 mg of the ibuprofen particles and different amounts (1.5-200 mg) of excipient in 2.5 ml dissolution fluid. The excipient was either HPMC or a mixture of 67 wt % HPMC and 33 wt % polyoxyl stearate. The dissolution fluid was 0.1 M HCl in deionized water.

[1] = 1 mg ibuprofen particles in 2.5 ml stirred dissolution fluid

## CC(C)Cc1ccc(C(C)C(=O)O)cc1 (stereo not drawn) [ibuprofen]
[1]
  concentration of dissolved drug at 3000 minutes (50 h): 40000 ng/mL
  time to reach the solubility c0: ≤ 15,000 minutes
Dissolution fluid (0.1 M HCl in deionized water), simulated gastric fluid, thermodynamic from solid, 0.1 M HCl in deionized water, no excipient, read-out: solubility of ibuprofen in the dissolution fluid, c0
  solubility: ~50 µg/mL (≈ 242 µM)
